Data as given in article PMC7845594, “Novel Immune Modulators Enhance Caenorhabditis elegans Resistance to Multiple Pathogens” (mSphere, 2021).

Legend:
[1] = test system: P. aeruginosa strain PA14; assay: MIC assay (bacterial growth, no worms); assay type: cell-based, Pseudomonas aeruginosa; details: for MIC: Pseudomonas aeruginosa, P. aeruginosa PA14, LB media, static culture, no worms, read-out: MIC; for MIC / EC: ratio of MIC to EC, P. aeruginosa PA14
Protocol: For the first round of characterization, 69 novel small molecules previously selected on the basis of their ability to improve C. elegans survival during exposure to P. aeruginosa in liquid ([14]) were tested for the ability to interfere with bacterial growth. MICs were determined for each compound by growing P. aeruginosa strain PA14 in static culture in 384-well plates with serial 2-fold dilutions of compounds. No worms were used in these assays. Next, effective rescue concentrations (EC; defined as the minimum concentration that results in statistically significant survival, compared to dimethyl sulfoxide [DMSO]) ([15], [18]) were determined for each compound using the standard P. aeruginosa liquid killing assay. Sterile glp-4(bn2) worms were used in all liquid-based assays to limit artifacts (i.e., unlaid eggs will hatch and cause matricide).
Plates were allowed to grow for 24 h at 37°C without shaking. Growth was scored visually on the basis of turbidity. At least three biological replicates were performed.

C. elegans transcriptome = assay: Transcriptome profiling (Affymetrix microarrays), differentially expressed genes; assay type: in vivo, Caenorhabditis elegans; details: downregulated genes
Protocol: To gain additional insight into the effect of LK molecules on C. elegans, young-adult, wild-type worms were treated with each drug at 100 µM for 8 h in the absence of pathogen. RNA was collected, and transcriptome profiling was performed.
Data were determined using Affymetrix microarrays, as described in Materials and Methods. Download Table S3, XLSX file, 0.07 MB.
Transcriptome profiling was performed on ∼6,000 wild-type, young adult worms incubated with either LK molecules or DMSO for 8 h. RNA isolation was performed using TRIzol extraction, followed by cleanup using RNeasy columns according to the manufacturer’s protocol. Each condition was analyzed in triplicate. Microarray data have been deposited in the GEO database, accession number GSE137516. […] Clustering and generation of the heat map was performed using Cluster 3.0 ([98]) and Treeview ([99]), respectively. Fold change of genes were normalized to average fold change of that gene over all clustered conditions. Genes and conditions were clustered using Euclidean distance and average linkages. […] Microarray data for non-LK molecules were collected from GEO omnibus. WormEXP was used as a secondary method for confirming statistical significance of potential pathways stimulated by each of the LK molecules ([100]). Gene ontologies were generated using DAVID ([101], [102]).

Structure (SMILES) | MIC [1] | MIC / EC [1] | Fold Change (C. elegans transcriptome; Gene F37C12.7, Affy_ID 174751_at) | Fold Change (C. elegans transcriptome; Gene R11.4, Affy_ID 177194_at) | Fold Change (C. elegans transcriptome; Gene Y92C3B.2, Affy_ID 175744_s_at)
COC(=O)/C=C/C(=O)Nc1ccccc1 [LK32] | > 975 µM | > 30.5 |  |  | 
O=c1cc(CNc2ccc(Br)cc2)nc2sccn12 [LK56] | > 595 µM | > 81.5 | 0.2156 | 0.488 | 0.43
